# Like-named read-outs stand apart in the source and are kept apart here.
# Assays:
# [1] = system: L. (L.) amazonensis LTB0016 promastigotes; test: Promastigote in vitro susceptibility (Alamar Blue/resazurin), reference strain; type: cell-based, Leishmania amazonensis; settings: for growth inhibition / inhibition at 50 µM: LTB0016, 50 µM; for inhibition at 50 µM: read-out: growth inhibition
# Description: The fluorometric method of Alamar Blue® (resazurin) was used. Promastigotes grown in biphasic agar-blood medium, at the exponential phase of growth, were seeded in flat-bottom 96-well culture plates, at a cell density of 1 × 10^6 parasites mL^−1 (200,000 parasites/well), in 180 µL of RPMIc without phenol red. Subsequently, either a sole concentration (50 µM), or increasing concentrations of compounds or drugs were applied, according to each treatment group, in volumes of 2 µL. Plates were kept at 26 °C, in a humid chamber, for 72 h. […] Live parasites are metabolically active and capable of reducing non-fluorescent resazurin (blue) to fluorescent resorufin (red). Fluorescence intensity is directly proportional to the number of viable cells. […] At least two independent experiments were performed in duplicate. The effect of trivalent antimonial [SbIII, potassium antimonyl tartrate trihydrate, Sigma-Aldrich, (St. Louis, MO, USA)] was included as positive control of the assay.
# J774.1 macrophages = test: Cytotoxicity (Alamar Blue) in macrophages; type: cell-based, murine; settings: 72 h
# Description: (§1) In flat-bottom 96-well culture plates, J774.1 macrophages were seeded at a cell density of 5 × 10^4 mL^−1 (10,000 macrophages/well) in 200 µL of RPMIc. After 24 h at 37 °C, 5% CO2, medium was replaced by 180 µL of RPMIc, without phenol red, and increasing concentrations of test compounds in 2-µL volumes. […] At least two independent experiments were performed in duplicate. Based on the inhibition of cell growth caused by the tested compounds, the percentage of growth inhibition compared to untreated cells was calculated. […] Selectivity indices (SI) were calculated, dividing the macrophage CC50 by the parasites GI50 (SI = CC50/GI50).
# [2] = system: L. (V.) braziliensis promastigotes, reference strain MHOM/BR/LTB300; settings: cited from earlier work; for active concentration in L. (L.) braziliensis: reference strain MHOM/BR/LTB300
# [3] = system: L. (L.) braziliensis MHOM/BR/LTB300; design: method as in PMID 25240731; settings: cited from earlier work
# [4] = Cytotoxicity (Alamar Blue) in macrophages; type: cell-based, murine; settings: mouse, J774.1 macrophages
# Description: as §1
# [5] = system: L. (L.) amazonensis VE98MR promastigotes; test: Promastigote in vitro susceptibility (Alamar Blue/resazurin), patient isolate VE98MR; type: cell-based, Leishmania amazonensis
# Description: (§2) The fluorometric method of Alamar Blue® (resazurin) was used. Promastigotes grown in biphasic agar-blood medium, at the exponential phase of growth, were seeded in flat-bottom 96-well culture plates, at a cell density of 1 × 10^6 parasites mL^−1 (200,000 parasites/well), in 180 µL of RPMIc without phenol red. Subsequently, either a sole concentration (50 µM), or increasing concentrations of compounds or drugs were applied, according to each treatment group, in volumes of 2 µL. Plates were kept at 26 °C, in a humid chamber, for 72 h. Resazurin was then added (20 µL of 10% v/v), to reach a final concentration of 250 µM and plates were incubated for an additional 4 h. Live parasites are metabolically active and capable of reducing non-fluorescent resazurin (blue) to fluorescent resorufin (red). Fluorescence intensity is directly proportional to the number of viable cells. The fluorometric reading was carried out using the appropriate wavelengths (ex: 540 nm/em: 580 nm) in a spectrofluorometer Victor^2 Wallac (Perkin Elmer, Turku, Finland). At least two independent experiments were performed in duplicate. The effect of trivalent antimonial [SbIII, potassium antimonyl tartrate trihydrate, Sigma-Aldrich, (St. Louis, MO, USA)] was included as positive control of the assay.
# [6] = system: L. (L.) amazonensis VE2000MM promastigotes; test: Promastigote in vitro susceptibility (Alamar Blue/resazurin), patient isolate VE2000MM; type: cell-based, Leishmania amazonensis
# Description: as §2
# [7] = system: L. (L.) amazonensis LTB0016, VE98MR and VE2000MM promastigotes; test: Plasma membrane potential (ΔΨp), bisoxonol fluorescence; type: cell-based, Leishmania amazonensis; settings: VE2000MM promastigotes; valinomycin 1 µM
# Description: To evaluate the plasma membrane potential (ΔΨp), the fluorescent compound, bisoxonol, bis[1,3-diethylthiobarbituric acid] trimethine oxonol, was used, as well as a method optimized by Padrón-Nieves et al.. Initially, calibration curves for each strain, using increasing concentrations of KCl (0.5 to 75 mM), were performed in the late log growth phase Leishmania promastigotes in the presence of the potassium ionophore valinomycin. By this procedure, fluorescence values could be transformed into millivolts (mV), applying the Nernst equation, ΔΨp = −59.4 log(120/[KCl]). […] After 10 min of incubation in the dark, fluorescence was measured in a Victor^2 Wallac spectrofluorometer (Perkin Elmer, Turku, Finland), using the appropriate wavelengths (ex: 540 nm/em: 580 nm). […] Once the corresponding calibration curve for each strain was obtained, the effect of compounds on the ΔΨp was evaluated. […] After 10 min of incubation in the dark, fluorescence was measured, using the appropriate wavelengths (ex: 540 nm/em: 580 nm). […] To transform the fluorescence values in millivolts (mV), calibration curves were prepared using increasing concentrations of KCl (0.5, 1.15, 2.5, 5, 10, 20, 40, and 75 mM). […]
# [8] = LTB0016 promastigotes, 72 h, read-out: Promastigote (GI50) mean
# [9] = J774.1 CC50 / LTB0016 promastigote GI50
# [10] = Leishmania amazonensis, LTB0016 promastigotes, 72 h, read-out: Promastigote (GI50) mean
molecule,measurement,setting,value
"3,28-diformylbetulin triazolodione [Compound 26]",SI CC50/GI50,[1],5.68
same,growth inhibition,[1],at least 75%
same,GI50,[1]; [8],3.85 µM
same,CC50,J774.1 macrophages,21.9 µM
same,GI50,[2],< 1 µM
same,active concentration in L. (L.) braziliensis,[2],less than 10 µM
same,inhibition of parasite migration,[3],inhibited parasite migration at nano and picomolar concentrations
"C=C(C)[C@@H]1CC[C@]2(CO)CC[C@]3(C)[C@H](CC[C@@H]4[C@@]5(C)CC[C@H](O)C(C)(C)[C@@H]5CC[C@]43C)[C@@H]12 [Compound 1, betulin]",SI CC50/GI50,[1]; [9],1.30
same,inhibition at 50 µM,[1]; Leishmania amazonensis,≥ 75%
same,GI50,[1]; [10],19.3 µM
same,CC50 at 72 h,[4],25.1 µM
"C=C(C)[C@@H]1CC[C@]2(C(=O)O)CC[C@]3(C)[C@H](CC[C@@H]4[C@@]5(C)CC[C@H](O)C(C)(C)[C@@H]5CC[C@]43C)[C@@H]12 [Compound 11, betulinic acid]",inhibition at 50 µM,[1]; Leishmania amazonensis,44%
"C=C(C)[C@@H]1CC[C@]2(C=O)CC[C@]3(C)[C@H](CC[C@@H]4[C@@]5(C)CC[C@H](O)C(C)(C)[C@@H]5CC[C@]43C)[C@@H]12 [Compound 12, betulinic aldehyde]",growth inhibition,[1],67%
C=C(C)[C@@H]1CC[C@]2(C(=O)O)CC[C@]3(C)[C@H](CC[C@@H]4[C@@]5(C)CC[C@H](O)C(C)(C)[C@@H]5CC[C@]43C)[C@@H]12 [Compound 13],growth inhibition,[1],did not show enough anti-leishmanial activity
C=C(C)[C@@H]1CC[C@]2(C(=O)O)CC[C@]3(C)[C@H](CC[C@@H]4[C@@]5(C)CCC(=O)C(C)(C)[C@@H]5CC[C@]43C)[C@@H]12 [Compound 14],growth inhibition,[1],did not show enough anti-leishmanial activity
same,active concentration in L. (L.) braziliensis,[2],less than 10 µM
C=C(C)C1CCC2(C=NO)CCC3(C)C(CCC4C5(C)CCC(O)C(C)(C)C5CCC43C)C12 (stereo not shown) [Compound 17],SI CC50/GI50,[1]; [9],14.23
same,growth inhibition,[1],at least 75%
same,GI50,[1]; [8],1.35 µM
same,CC50,J774.1 macrophages,19.3 µM
same,active concentration in L. (L.) braziliensis,[2],less than 10 µM
"[K+].[K+].[O]=[Cr](=[O])([O-])[O][Cr](=[O])(=[O])[O-] [Compound K2Cr2O7, K2Cr2O7]",GI50,"[1]; data not detailed in the manuscript, parasite stage not stated, read-out: GI50 against K2Cr2O7, LTB0016",1060 µM
same,GI50,"[5]; data not detailed in the manuscript, parasite stage not stated, read-out: GI50 against K2Cr2O7, VE98MR",> 2500 µM
same,GI50,"[6]; data not detailed in the manuscript, parasite stage not stated, read-out: GI50 against K2Cr2O7, VE2000MM",> 2500 µM
"CCCCCCCCCCCCCCCCOP(=O)([O-])OCC[N+](C)(C)C [MLF, miltefosine, reference compound]",GI50,[1]; [10],4.17 µM
same,GI50,"[6]; Leishmania amazonensis, read-out: GI50 promastigotes VE2000MM",5.13 µM
"O=NO [NaNO2, sodium nitrite]",GI50,"[1]; data not detailed in the manuscript, parasite stage not stated, read-out: GI50 against NaNO2, LTB0016",0.91 µM
same,GI50,"[5]; data not detailed in the manuscript, parasite stage not stated, read-out: GI50 against NaNO2, VE98MR",3.28 µM
same,GI50,"[6]; data not detailed in the manuscript, parasite stage not stated, read-out: GI50 against NaNO2, VE2000MM",4.79 µM
"N=C(N)c1ccc(OCCCCCOc2ccc(C(=N)N)cc2)cc1 [PNT, reference compound]",GI50,[1]; [8],0.93 µM
"CC(C)[C@@H]1NC(=O)[C@H](C)OC(=O)[C@@H](C(C)C)NC(=O)[C@@H](C(C)C)OC(=O)[C@H](C(C)C)NC(=O)[C@H](C)OC(=O)[C@@H](C(C)C)NC(=O)[C@@H](C(C)C)OC(=O)[C@H](C(C)C)NC(=O)[C@H](C)OC(=O)[C@@H](C(C)C)NC(=O)[C@@H](C(C)C)OC1=O [valinomycin, reference compound]","Effect on plasma membrane potential (ΔΨp), VE2000MM",[7],not sensitive
potassium antimonyl tartrate trihydrate [SbIII],GI50,[1]; [8],5.51 µM
same,GI50,"[5]; promastigotes, read-out: GI50 promastigotes VE98MR",9.08 µM
same,GI50,"[6]; promastigotes, read-out: GI50 promastigotes VE2000MM",13.6 µM

# Source: publication PMC7913927, “Leishmanicidal Activity of Betulin Derivatives in Leishmania amazonensis; Effect on Plasma and Mitochondrial Membrane Potential, and Macrophage Nitric Oxide and Superoxide Production” (Microorganisms, 2021)
